Assays:
[1] = target: Sodium-dependent serotonin transporter (Homo sapiens, UniProt P31645)
[2] = target: T1, 5-hydroxytryptamine receptor 2A (Homo sapiens, UniProt P28223); type: functional, cell-based
[3] = target: T1, 5-hydroxytryptamine receptor 2A; type: functional, cell-based; remark: listed apart in the source
[4] = target: T2, Alpha-1A adrenergic receptor (Homo sapiens, UniProt P35348)
T2 sequence (P35348 whole entry): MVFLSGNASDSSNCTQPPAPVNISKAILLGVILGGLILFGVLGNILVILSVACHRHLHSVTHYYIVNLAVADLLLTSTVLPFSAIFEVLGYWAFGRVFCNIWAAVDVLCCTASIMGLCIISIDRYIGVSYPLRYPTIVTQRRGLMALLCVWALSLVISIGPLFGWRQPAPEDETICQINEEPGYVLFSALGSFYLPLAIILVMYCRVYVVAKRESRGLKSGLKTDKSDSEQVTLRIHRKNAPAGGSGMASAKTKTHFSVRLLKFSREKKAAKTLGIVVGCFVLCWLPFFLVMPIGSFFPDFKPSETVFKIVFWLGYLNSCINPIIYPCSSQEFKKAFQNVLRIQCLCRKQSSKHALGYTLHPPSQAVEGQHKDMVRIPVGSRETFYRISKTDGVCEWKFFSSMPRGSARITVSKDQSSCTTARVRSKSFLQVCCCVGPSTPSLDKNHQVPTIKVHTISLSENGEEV

[5] = target: T3, Muscarinic acetylcholine receptor M2 (Homo sapiens, UniProt P08172)
T3 sequence (P08172 whole entry): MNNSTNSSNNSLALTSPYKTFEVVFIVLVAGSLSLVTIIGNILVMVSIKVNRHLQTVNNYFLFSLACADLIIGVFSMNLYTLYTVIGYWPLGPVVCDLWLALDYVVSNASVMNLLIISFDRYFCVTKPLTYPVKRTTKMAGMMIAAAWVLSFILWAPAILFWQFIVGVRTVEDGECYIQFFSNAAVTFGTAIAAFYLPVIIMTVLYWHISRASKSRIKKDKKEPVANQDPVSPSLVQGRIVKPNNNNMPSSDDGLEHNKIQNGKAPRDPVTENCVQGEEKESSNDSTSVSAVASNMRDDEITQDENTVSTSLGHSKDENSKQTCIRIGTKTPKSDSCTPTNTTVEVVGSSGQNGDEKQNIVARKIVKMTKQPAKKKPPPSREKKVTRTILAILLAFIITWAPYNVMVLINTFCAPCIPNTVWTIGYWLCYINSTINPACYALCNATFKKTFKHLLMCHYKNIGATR

[6] = target: Gamma-aminobutyric acid receptor subunit alpha-1/alpha-2/beta-2/gamma-2 (Homo sapiens, UniProt P14867+P18507+P47869+P47870); type: functional, cell-based
[7] = target: T4, Corticotropin-releasing factor receptor 1 (Homo sapiens, UniProt P34998)
T4 sequence (P34998 whole entry): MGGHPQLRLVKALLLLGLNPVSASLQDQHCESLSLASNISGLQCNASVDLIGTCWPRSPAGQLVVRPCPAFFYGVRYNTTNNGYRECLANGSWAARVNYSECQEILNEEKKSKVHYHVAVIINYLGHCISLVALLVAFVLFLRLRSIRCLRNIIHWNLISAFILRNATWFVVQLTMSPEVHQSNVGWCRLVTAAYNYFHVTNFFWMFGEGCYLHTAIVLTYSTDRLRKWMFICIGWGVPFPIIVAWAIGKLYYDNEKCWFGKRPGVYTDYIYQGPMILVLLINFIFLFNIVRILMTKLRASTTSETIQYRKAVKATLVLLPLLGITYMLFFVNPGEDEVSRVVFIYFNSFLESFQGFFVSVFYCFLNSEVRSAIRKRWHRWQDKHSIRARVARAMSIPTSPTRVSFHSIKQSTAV

[8] = target: Voltage-dependent N-type calcium channel subunit alpha-1B (Rattus norvegicus, UniProt Q02294); type: functional
[9] = target: T5, Neuropeptide Y receptor type 2 (Homo sapiens, UniProt P49146)
T5 sequence (P49146 whole entry): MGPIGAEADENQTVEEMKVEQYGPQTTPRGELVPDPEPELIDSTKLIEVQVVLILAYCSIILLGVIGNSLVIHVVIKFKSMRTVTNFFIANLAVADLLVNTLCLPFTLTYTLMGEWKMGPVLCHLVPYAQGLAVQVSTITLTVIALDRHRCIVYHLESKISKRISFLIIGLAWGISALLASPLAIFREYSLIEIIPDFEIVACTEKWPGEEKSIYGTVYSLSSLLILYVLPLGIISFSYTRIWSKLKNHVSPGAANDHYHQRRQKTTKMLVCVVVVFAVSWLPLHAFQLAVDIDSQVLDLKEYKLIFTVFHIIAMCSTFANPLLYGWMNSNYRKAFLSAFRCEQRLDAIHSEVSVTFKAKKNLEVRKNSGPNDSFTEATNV

[10] = target: T6, Gastric inhibitory polypeptide receptor (Homo sapiens, UniProt P48546)
T6 sequence (P48546 whole entry): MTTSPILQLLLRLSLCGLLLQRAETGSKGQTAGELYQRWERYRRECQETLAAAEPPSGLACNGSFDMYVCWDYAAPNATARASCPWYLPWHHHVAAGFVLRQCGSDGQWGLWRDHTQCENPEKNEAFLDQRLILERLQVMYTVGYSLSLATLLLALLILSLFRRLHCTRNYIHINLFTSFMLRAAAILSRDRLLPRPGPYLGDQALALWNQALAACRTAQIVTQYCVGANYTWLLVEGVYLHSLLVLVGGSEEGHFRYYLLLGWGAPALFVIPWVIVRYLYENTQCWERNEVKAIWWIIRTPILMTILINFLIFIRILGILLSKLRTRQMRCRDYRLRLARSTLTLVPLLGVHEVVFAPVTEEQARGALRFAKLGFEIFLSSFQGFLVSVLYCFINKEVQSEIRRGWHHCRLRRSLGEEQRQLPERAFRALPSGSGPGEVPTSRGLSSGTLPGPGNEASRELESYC
Also: assay procedure not described here.

Sodium-dependent serotonin transporter, sequence (P31645 whole entry): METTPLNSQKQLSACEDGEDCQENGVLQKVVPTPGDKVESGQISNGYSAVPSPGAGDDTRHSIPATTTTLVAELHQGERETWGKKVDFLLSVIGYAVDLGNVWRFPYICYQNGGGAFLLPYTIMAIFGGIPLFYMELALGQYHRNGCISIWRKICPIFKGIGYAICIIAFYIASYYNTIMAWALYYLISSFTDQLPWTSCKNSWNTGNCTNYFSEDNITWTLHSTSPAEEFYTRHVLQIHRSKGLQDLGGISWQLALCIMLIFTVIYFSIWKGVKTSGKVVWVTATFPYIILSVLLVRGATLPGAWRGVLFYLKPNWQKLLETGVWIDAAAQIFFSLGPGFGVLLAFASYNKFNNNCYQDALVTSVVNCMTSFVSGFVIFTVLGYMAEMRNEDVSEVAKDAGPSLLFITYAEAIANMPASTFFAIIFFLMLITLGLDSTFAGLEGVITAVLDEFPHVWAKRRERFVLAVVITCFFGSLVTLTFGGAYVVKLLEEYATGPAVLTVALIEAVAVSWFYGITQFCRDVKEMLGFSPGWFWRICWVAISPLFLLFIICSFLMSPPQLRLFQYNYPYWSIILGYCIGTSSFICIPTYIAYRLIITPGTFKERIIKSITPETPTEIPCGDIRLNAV
T1 sequence (P28223 whole entry): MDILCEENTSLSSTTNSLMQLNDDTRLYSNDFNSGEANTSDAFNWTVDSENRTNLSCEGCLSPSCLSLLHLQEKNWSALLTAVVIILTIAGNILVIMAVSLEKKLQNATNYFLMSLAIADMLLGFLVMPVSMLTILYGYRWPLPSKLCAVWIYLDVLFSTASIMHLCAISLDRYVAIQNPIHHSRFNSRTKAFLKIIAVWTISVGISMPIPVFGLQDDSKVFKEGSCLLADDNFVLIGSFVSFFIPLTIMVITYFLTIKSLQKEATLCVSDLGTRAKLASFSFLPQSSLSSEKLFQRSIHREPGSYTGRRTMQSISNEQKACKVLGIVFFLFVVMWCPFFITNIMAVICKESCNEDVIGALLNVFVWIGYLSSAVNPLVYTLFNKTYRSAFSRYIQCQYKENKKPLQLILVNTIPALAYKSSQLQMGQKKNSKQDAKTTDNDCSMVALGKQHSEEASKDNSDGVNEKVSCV
Voltage-dependent N-type calcium channel subunit alpha-1B, sequence (Q02294 whole entry): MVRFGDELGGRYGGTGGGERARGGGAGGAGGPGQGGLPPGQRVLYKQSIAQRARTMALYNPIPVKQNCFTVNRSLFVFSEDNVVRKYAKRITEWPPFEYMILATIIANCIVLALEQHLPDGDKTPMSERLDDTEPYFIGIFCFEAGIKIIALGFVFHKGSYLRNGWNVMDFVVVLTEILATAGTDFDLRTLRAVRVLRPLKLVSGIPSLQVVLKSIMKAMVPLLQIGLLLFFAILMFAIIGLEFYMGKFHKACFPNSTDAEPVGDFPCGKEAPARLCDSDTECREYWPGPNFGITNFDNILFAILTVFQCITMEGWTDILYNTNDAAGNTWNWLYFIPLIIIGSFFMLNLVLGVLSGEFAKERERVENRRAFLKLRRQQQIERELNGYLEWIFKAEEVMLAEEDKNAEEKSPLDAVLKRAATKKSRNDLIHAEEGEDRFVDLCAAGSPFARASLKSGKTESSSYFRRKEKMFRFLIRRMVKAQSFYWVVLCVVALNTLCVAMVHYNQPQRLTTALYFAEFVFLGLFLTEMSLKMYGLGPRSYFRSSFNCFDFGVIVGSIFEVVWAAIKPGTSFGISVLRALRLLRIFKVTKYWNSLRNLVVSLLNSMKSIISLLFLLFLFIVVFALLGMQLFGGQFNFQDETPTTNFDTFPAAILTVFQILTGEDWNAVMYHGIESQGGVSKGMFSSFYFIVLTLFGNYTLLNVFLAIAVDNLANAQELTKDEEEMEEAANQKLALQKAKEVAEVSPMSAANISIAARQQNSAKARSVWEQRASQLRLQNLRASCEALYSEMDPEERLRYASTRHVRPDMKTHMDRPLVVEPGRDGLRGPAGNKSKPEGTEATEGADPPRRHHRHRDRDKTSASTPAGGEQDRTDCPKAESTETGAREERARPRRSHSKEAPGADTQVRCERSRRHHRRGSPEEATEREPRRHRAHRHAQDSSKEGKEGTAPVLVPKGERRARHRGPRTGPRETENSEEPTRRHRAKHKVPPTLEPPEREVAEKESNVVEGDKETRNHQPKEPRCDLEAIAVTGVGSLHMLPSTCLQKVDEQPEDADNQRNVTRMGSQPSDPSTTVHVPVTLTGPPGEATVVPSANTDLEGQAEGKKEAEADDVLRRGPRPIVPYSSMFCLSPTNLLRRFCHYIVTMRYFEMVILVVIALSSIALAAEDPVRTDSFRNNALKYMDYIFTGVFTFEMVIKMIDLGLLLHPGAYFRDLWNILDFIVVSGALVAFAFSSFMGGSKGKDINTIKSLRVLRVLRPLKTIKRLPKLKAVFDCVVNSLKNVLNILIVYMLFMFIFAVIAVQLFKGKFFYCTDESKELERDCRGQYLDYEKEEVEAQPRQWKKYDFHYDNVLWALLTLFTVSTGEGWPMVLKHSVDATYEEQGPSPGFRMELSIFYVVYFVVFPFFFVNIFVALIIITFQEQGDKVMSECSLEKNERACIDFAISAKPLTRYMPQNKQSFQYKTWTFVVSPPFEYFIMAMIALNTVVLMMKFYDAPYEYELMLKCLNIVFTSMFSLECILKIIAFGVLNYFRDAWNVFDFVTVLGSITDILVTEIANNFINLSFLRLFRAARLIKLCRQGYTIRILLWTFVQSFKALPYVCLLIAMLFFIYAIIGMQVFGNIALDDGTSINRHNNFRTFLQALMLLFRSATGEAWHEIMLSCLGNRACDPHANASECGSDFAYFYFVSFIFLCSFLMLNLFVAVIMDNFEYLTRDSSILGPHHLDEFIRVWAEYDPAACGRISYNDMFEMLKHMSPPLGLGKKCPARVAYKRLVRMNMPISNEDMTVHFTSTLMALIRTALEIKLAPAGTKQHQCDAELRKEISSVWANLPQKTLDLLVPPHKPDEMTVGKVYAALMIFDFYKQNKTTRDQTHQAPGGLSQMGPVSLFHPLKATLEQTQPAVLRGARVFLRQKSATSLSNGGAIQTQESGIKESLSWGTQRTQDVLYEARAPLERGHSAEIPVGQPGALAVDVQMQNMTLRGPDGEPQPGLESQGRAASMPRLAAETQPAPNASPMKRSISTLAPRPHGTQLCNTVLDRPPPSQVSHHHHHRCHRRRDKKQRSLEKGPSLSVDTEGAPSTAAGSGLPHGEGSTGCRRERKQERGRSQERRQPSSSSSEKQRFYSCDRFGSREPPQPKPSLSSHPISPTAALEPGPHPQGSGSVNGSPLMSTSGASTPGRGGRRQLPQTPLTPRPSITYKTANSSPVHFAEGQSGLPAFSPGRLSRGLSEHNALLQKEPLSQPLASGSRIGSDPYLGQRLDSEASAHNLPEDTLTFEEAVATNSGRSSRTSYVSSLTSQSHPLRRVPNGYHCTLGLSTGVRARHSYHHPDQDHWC

| Compound | AC50 [1] | AC50 [2] | AC50 [3] | AC50 [4] | AC50 [5] | AC50 [6] | AC50 [7] | AC50 [8] | AC50 [9] | AC50 [10] |
| --- | --- | --- | --- | --- | --- | --- | --- | --- | --- | --- |
| CC(=O)Oc1ccccc1C(=O)Nc1ncc([N+](=O)[O-])s1 [NITAZOXANIDE] | 6.3 µM | 15 µM | > 30 µM |  |  |  |  |  |  |  |
| CNCCC=C1c2ccccc2CCc2ccccc21 [NORTRIPTYLINE] |  |  |  | 0.114 µM | 0.632 µM |  |  |  |  |  |
| CN(C)c1cc(CNCC(C)(C)C)c(O)c2c1C[C@H]1C[C@H]3[C@H](N(C)C)C(O)=C(C(N)=O)C(=O)[C@@]3(O)C(O)=C1C2=O [OMADACYCLINE] | 11 µM | > 30 µM | > 30 µM |  | 4.25 µM | > 30 µM |  |  |  |  |
| COc1ccnc(C[S+]([O-])c2nc3ccc(OC(F)F)cc3[nH]2)c1OC (stereo not given) [PANTOPRAZOLE] |  |  |  | 10.6 µM | > 10 µM |  | > 30 µM | > 10 µM | > 30 µM | > 30 µM |
| CC(C)C[C@H](CN)CC(=O)O [PREGABALIN] | > 30 µM | > 30 µM | > 30 µM |  |  | > 30 µM | > 30 µM | > 10 µM | > 30 µM | > 30 µM |
| CNC(=O)c1cc(Oc2ccc(NC(=O)Nc3ccc(Cl)c(C(F)(F)F)c3)c(F)c2)ccn1 [REGORAFENIB] | > 30 µM | > 30 µM | > 30 µM |  |  |  |  |  |  |  |
| CCOc1cc(CC(=O)N[C@@H](CC(C)C)c2ccccc2N2CCCCC2)ccc1C(=O)O [REPAGLINIDE] | > 30 µM | 9.4 µM | > 30 µM |  |  | > 30 µM |  |  |  |  |
| CCCN(CCC)CCc1cccc2c1CC(=O)N2 [ROPINIROLE] | > 30 µM | 7.3 µM | 12 µM | > 10 µM | 12.1 µM | > 30 µM | > 30 µM | > 10 µM | > 30 µM | > 30 µM |
| CCCN(CCc1cccs1)[C@H]1CCc2c(O)cccc2C1 [ROTIGOTINE] | 7.8 µM |  | 0.46 µM |  |  | > 30 µM |  |  |  |  |
| CC(=O)S[C@@H]1CC2=CC(=O)CC[C@]2(C)[C@H]2CC[C@@]3(C)[C@@H](CC[C@@]34CCC(=O)O4)[C@H]12 [SPIRONOLACTONE] |  |  |  | 10.4 µM | > 10 µM | > 30 µM | > 30 µM | > 10 µM | > 30 µM | > 30 µM |
| CCCCNc1ccc(C(=O)OCCN(C)C)cc1 [TETRACAINE] |  |  |  | > 10 µM | > 10 µM |  | > 30 µM | > 10 µM | > 30 µM | > 30 µM |
| Cn1c(=O)c2[nH]cnc2n(C)c1=O [THEOPHYLLINE] |  |  |  | > 10 µM | > 10 µM |  | > 30 µM | > 10 µM | > 30 µM |  |
| CN1CCN(CCCN2c3ccccc3Sc3ccc(S(=O)(=O)N(C)C)cc32)CC1 [THIOPROPERAZINE] |  | 5.8 µM | > 30 µM |  |  | > 30 µM |  |  |  |  |
| CC1(C)O[C@@H]2[C@@H](CO[C@@]3(COS(N)(=O)=O)OC(C)(C)O[C@@H]23)O1 [TOPIRAMATE] | > 10 µM |  |  | > 10 µM | > 10 µM |  | > 30 µM | > 10 µM | > 30 µM | > 30 µM |
| Cc1cc(CC(=O)O)n(C)c1C(=O)c1ccc(Cl)cc1 [ZOMEPIRAC] | > 30 µM | > 30 µM | > 30 µM |  |  |  |  |  |  |  |

Source: ChEMBL document CHEMBL5291721, “A preclinical secondary pharmacology resource illuminates target-adverse drug reaction associations of marketed drugs” (Nat Commun, 2023)
